Tests used:
NCI-H716 cells = experiment: In vitro GLP-1 secretion in differentiated NCI-H716 cells (ELISA); type: cell-based, human; details: for fold induction at 100 µM: Homo sapiens, NCI-H716, 0.5 h, compound at 100 μM for 30 minutes, differentiated NCI-H716 cells, read-out: GLP-1 RELEASE NCI, fold of increase over DMSO
Procedure: (§1) GPR120/40 Activation: In Vitro GLP-1 Secretion
(§2) 2×10^5 STC-1 cells were seeded in a 12-plate and 24 hours later were treated with selected compounds. 1×10^6 NCI-H716 cells were differentiated in matrigel-coated 12-plate and treated 48 h hours later.
(§3) The day of the experiment, wells were washed once with 1 ml of PBS and then cells were stimulated with 0.5 ml of DMEM (w/o serum, w/o phenol-red) containing 30 μM of selected compounds in STC1 and 100 μM in differentiated NCIH716 for 30 minutes. DMSO has been used as negative control, α-linolenic acid (ALA) (endogenous agonist) as positive control. After stimulations, supernatants were collected, centrifuged at 4000 rpm for 4′ at 4° C., and used for the GLP1 detection by ELISA.

STC-1 cells = experiment: In vitro GLP-1 secretion in STC-1 cells (ELISA); type: cell-based, murine; details: for fold induction at 30 µM: Mus musculus, STC-1, 0.5 h, read-out: GLP-1 RELEASE STC-1, fold of increase over DMSO
Procedure: as §1, §2, §3

human GPR40 = molecular target: T1, human GPR40 (Homo sapiens, UniProt O14842); experiment: In vitro Ca2+ mobilization, CHO-k1 cells stably expressing human GPR40; type: cell-based; details: for AC50: read-out: Ca2+ hGPR40 AC50
T1 construct: expressed in transfected cells; host or cells: CHO-k1
T1 sequence (O14842 whole entry): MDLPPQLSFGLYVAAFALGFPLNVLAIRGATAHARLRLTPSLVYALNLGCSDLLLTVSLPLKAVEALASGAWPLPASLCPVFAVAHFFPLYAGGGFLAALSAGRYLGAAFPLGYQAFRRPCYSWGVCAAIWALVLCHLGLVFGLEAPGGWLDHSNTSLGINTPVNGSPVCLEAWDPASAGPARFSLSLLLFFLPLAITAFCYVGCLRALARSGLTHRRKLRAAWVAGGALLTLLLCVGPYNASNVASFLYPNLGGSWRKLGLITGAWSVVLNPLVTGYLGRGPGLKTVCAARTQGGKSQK
Procedure: (§4) GPR120/40 Activation: In Vitro Ca^2+ Mobilization
(§5) The activation of GPR120/40 by all compounds was determined by measuring changes in intracellular calcium levels using a Ca^2+ sensitive fluorescent dye.
(§6) The experiments were performed using CHO-k1 cells stably expressing the human GPR120 or GPR40. Cells were seeded 10000 cells/well in 384-plates in complete medium and grown overnight at 37° C., 5% CO2. 24 h after seeding, cell culture media was removed and cells were loaded with the fluorescent Ca^2+ indicator (Fluo-8 NW dye in Tyrode's buffer). Dye-loaded cell plates were incubated for 1 h at room temperature under a yellow light sodium lamp.
(§7) Cell were treated with test compounds and controls at 10, 30 and 60 μM. The kinetic response was monitored over a period of 7 minutes (using FLIPRTETRA system). A second injection of 3× concentrated reference agonist at ˜EC50 were then administered to cells and the signal of the emitted fluorescence was measured over a period of additional 3 minutes. The agonist effect is expressed as a percentage of activation, with 100% activation being a result in which the Response Values of the test wells reach a level identical to the one of the Stimulator Controls (alpha linolenic acid reference agonist EC100). 0% activation is a result in which the Response Values of the test wells reach a level identical to the one of the Neutral Controls (assay buffer) in the AGO_KRV (Agonist Kinetic Response Value) response value.

human GPR120 = molecular target: T2, human GPR120 (Homo sapiens, UniProt Q5NUL3); experiment: In vitro Ca2+ mobilization, CHO-k1 cells stably expressing human GPR120; type: cell-based; details: for AC50: intracellular calcium, CHO-k1 cells expressing human GPR120, read-out: Ca2+ hGPR120 AC50
T2 construct: expressed in transfected cells; host or cells: CHO-k1
T2 sequence (Q5NUL3 1-361): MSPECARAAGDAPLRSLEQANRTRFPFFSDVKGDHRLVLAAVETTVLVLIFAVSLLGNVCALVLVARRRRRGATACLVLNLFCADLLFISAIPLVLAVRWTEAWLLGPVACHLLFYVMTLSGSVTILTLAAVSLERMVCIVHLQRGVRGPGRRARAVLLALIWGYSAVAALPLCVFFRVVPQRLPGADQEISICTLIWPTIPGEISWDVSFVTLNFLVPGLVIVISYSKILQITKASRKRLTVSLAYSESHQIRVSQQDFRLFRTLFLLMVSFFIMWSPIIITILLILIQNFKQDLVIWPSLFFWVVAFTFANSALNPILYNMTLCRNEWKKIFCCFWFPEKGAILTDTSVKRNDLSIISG
Procedure: as §4, §5, §6, §7

[1] = compound at 30 μM for 30 minutes, STC-1 cells
[2] = intracellular calcium, CHO-k1 cells expressing human GPR40

Row | SMILES | fold induction at 100 µM (NCI-H716 cells) | fold induction at 30 µM (STC-1 cells; [1]) | GLP-1 secretion in NCI-H716 (human) cells, in words (NCI-H716 cells) | agonistic activity on GPR40 (AC50 in the calcium mobilization assay), in words (human GPR40) | AC50 (human GPR40; [2]) [µM] | agonistic activity on GPR120 (AC50 in the calcium mobilization assay), in words (human GPR120) | AC50 (human GPR120) [µM] | GLP-1 secretion in STC1 (murine) cells, in words (STC-1 cells) | GLP-1 RELEASE STC-1, fold of increase over DMSO (STC-1 cells; [1]) [fold] | Ca2+ hGPR40 AC50 (human GPR40; [2])
1 | CC/C=C\C/C=C\C/C=C\CCCCCCCC(=O)O [ALA, α-linolenic acid, reference compound] | 1.52 | 6.61 |  |  |  |  |  |  |  | 
2 | Cc1cc(F)cc(C)c1NS(=O)(=O)c1cccc(CCCCCCC(=O)O)c1 [Example 1, 7-(3-(N-(4-fluoro-2,6-dimethylphenyl)sulfamoyl)phenyl)heptanoic acid] | 1.08 ± 0.1 | 1.87 ± 0.5 | efficacious | low microMolar range | 140 | low microMolar range | 5.24 | efficacious |  | 
3 | Cc1cc(C)c(CNS(=O)(=O)c2cccc(CCCCCCC(=O)O)c2)c(C)c1 [Example 2, 7-(3-(N-(2,4,6-trimethylbenzyl)sulfamoyl)phenyl)heptanoic acid] | 2.1 ± 0.52 | 3.2 ± 0.47 | efficacious | low microMolar range | 11.2 | low microMolar range | 7.09 | efficacious |  | 
4 | Cc1cc(C(C)C)cc(C)c1NS(=O)(=O)c1cccc(CCCCCCC(=O)O)c1 [Example 3, 7-(3-(N-(4-isopropyl-2,6-dimethylphenyl)sulfamoyl)phenyl)heptanoic acid] | 2.5 ± 0.11 | 2.7 ± 0.31 | efficacious | low microMolar range | 12.9 | low microMolar range | 1.98 | efficacious |  | 
5 | Cc1cc(Cl)cc(C)c1NS(=O)(=O)c1cccc(CCCCCCC(=O)O)c1 [Example 4, 7-(3-(N-(4-chloro-2,6-dimethylphenyl)sulfamoyl)phenyl)heptanoic acid] | 1.92 ± 0.57 | 4.1 ± 0.54 | efficacious | low microMolar range | 41.3 | low microMolar range | 4.36 | efficacious |  | 
6 | Cc1cc(N(C)C)cc(C)c1NS(=O)(=O)c1cccc(CCCCCCC(=O)O)c1 [Example 5, 7-(3-(N-(4-(dimethylamino)-2,6-dimethylphenyl)sulfamoyl)phenyl)heptanoic acid] | 1.92 ± 0.14 | 4 ± 0.27 |  |  | 10.4 |  | 7.9 |  |  | 
7 | Cc1cc(C(F)(F)F)cc(C)c1NS(=O)(=O)c1cccc(CCCCCCC(=O)O)c1 [Example 6, 7-(3-(N-(2,6-dimethyl-4-(trifluoromethyl)phenyl)sulfamoyl)phenyl)heptanoic acid] | 2.54 ± 0.52 | 4.2 ± 0.45 | efficacious | low microMolar range | 11.7 | low microMolar range | 6 | efficacious |  | 
8 | Cc1cc(Br)cc(C)c1NS(=O)(=O)c1cccc(CCCCCCC(=O)O)c1 [Example 7, 7-(3-(N-(4-bromo-2,6-dimethylphenyl)sulfamoyl)phenyl)heptanoic acid] | 1.9 ± 0.15 | 1.8 ± 0.24 | efficacious | low microMolar range | 19.8 | low microMolar range | 5.72 | efficacious |  | 
9 | COc1cc(C)c(NS(=O)(=O)c2cccc(CCCCCCC(=O)O)c2)c(C)c1 [Example 8, 7-(3-(N-(4-methoxy-2,6-dimethylphenyl)sulfamoyl)phenyl)heptanoic acid] | 2.1 ± 0.08 | 1.7 ± 0.12 |  |  | 4.7 |  | 11.7 |  |  | 
10 | Cc1cc(F)c(-c2ccccc2)cc1NS(=O)(=O)c1cccc(CCCCCCC(=O)O)c1 [Example 9, 7-(3-(N-(6-fluoro-4-methyl-[1,1′-biphenyl]-3-yl)sulfamoyl)phenyl)heptanoic acid] | 6.2 | 14.5 | efficacious | low microMolar range | 8.9 | low microMolar range | 11.2 | efficacious | 14.5 ± 1.24 | 
11 | Cc1cc(F)cc(-c2ccccc2)c1NS(=O)(=O)c1cccc(CCCCCCC(=O)O)c1 [Example 10, 7-(3-(N-(5-fluoro-3-methyl-[1,1′-biphenyl]-2-yl)sulfamoyl)phenyl)heptanoic acid] | 2.5 | 4.7 | efficacious | low microMolar range | 12.8 | low microMolar range | 16.5 | efficacious |  | 
12 | Cc1cc(C)c(NS(=O)(=O)c2cccc(CCCCCC(=O)O)c2)c(C)c1 [Example 11, 6-{3-[(2,4,6-trimethylphenyl)sulfamoyl]phenyl}hexanoic acid] | 1.87 ± 0.27 | 1.71 ± 0.21 | efficacious | low microMolar range |  | low microMolar range | 6.2 | efficacious |  | Inactive
13 | Cc1n[nH]c(C)c1NS(=O)(=O)c1cccc(CCCCCCC(=O)O)c1 [Example 12, 7-(3-(N-(3,5-dimethyl-1H-pyrazol-4-yl)sulfamoyl)phenyl)heptanoic acid] | 1.41 ± 0.36 | 1.04 ± 0.32 |  |  | 10.7 |  | 13.1 |  |  | 
14 | Cc1nc(C)c(NS(=O)(=O)c2cccc(CCCCCCC(=O)O)c2)s1 [Example 13, 7-(3-(N-(2,4-dimethylthiazol-5-yl)sulfamoyl)phenyl)heptanoic acid] | 1.03 ± 0.17 | 1.13 ± 0.15 |  |  | 23.9 |  | 15.2 |  |  | 
15 | Cc1nc(NS(=O)(=O)c2cccc(CCCCCCC(=O)O)c2)sc1C [Example 14, 7-(3-(N-(4,5-dimethylthiazol-2-yl)sulfamoyl)phenyl)heptanoic acid] | 1.81 ± 0.67 | 1.37 ± 0.11 |  |  | 20.8 |  | 17.4 |  |  | 
16 | Cc1nc(NS(=O)(=O)c2cccc(CCCCCCC(=O)O)c2)oc1C [Example 15, 7-(3-(N-(4,5-dimethyloxazol-2-yl)sulfamoyl)phenyl)heptanoic acid] | 1.8 ± 0.91 | 1.19 ± 0.89 |  |  | 27.5 |  | 24.1 |  |  | 
17 | O=C(O)CCCCCCc1cccc(S(=O)(=O)Nc2nsc(-c3ccccc3)n2)c1 [Example 16, 7-(3-(N-(5-phenyl-1,2,4-thiadiazol-3-yl)sulfamoyl)phenyl)heptanoic acid] | 1.69 ± 0.14 | 1.31 ± 0.32 |  |  | 17.2 |  | 25.9 |  |  | 

From patent US10508090B2, “Sulfonamides as GPR40- and GPR120-agonists” (DOMPÉ FARMACEUTICI S.P.A., priority 2016, dated 2019)
